# Patent US20250213546A1, “TREATING CANCER WITH SMALL MOLECULES THAT INHIBIT ACSS-2” (DREXEL UNIVERSITY, priority 2022, published 2025)
# Read-outs that look alike come from different tables or passages of the source.
# Legend:
# [1] = tested on: MDR1-MDCK I cells; test: in vitro; details: dog, MDCK-MDR1, 1.5 h, 2 µM, pH 7.4
# Protocol: (§1) MDCKI MDR1 cell permeability assessment was performed to mimic the blood brain barrier. MDR1-MDCK I cells were seeded onto […] (PET) in 96-well Corning insert systems at 2.5×10^5 cells/mL until to 4-7 days for confluent cell monolayer formation. The transport buffer in the study was HBSS with 10.0 mM HEPES at pH 7.40+0.05. Test compounds were tested at 2.00 μM bi-directionally in duplicate. […] Final DMSO concentration was adjusted to less than 1%. The plate was incubated for 1.5 hours in CO2 incubator at 37±1° C., with 5% CO2 at saturated humidity without shaking. All samples after mixed with acetonitrile containing internal standard were centrifuged at 3220×g for 10 min. For all samples, 150 μL supernatant solution was diluted with 150 μL ultra-pure water for LC-MS/MS analysis. In addition, the efflux ratio of each compound was also determined. Test and reference compounds were quantified by LC-MS/MS analysis based on the peak area ratio of analyte/IS. After transport assay, Lucifer yellow rejection assay are applied to determine the cell monolayer integrity. Buffers are removed from both apical and basolateral chambers, followed by the addition of 75 μL of 100 μM lucifer yellow in transport buffer and 250 μL transport buffer in apical and basolateral chambers, respectively. […] After 30 minutes incubation, 20 μL of lucifer yellow samples are taken from the apical sides, followed by the addition of 60 μL of Transport Buffer. And then 80 μL of lucifer yellow samples are taken from the basolateral sides.
# (§2) The apparent permeability coefficient Papp (cm/s) was calculated using the equation: Papp=(dCr/dt)×Vr/(A×C0) where dCr/dt is the cumulative concentration of compound in the receiver chamber as a function of time (μM/s); Vr is the solution volume in the receiver chamber (0.075 mL on the apical side, 0.25 mL on the basolateral side); A is the surface area for the transport, i.e. 0.0804 cm^2 for the area of the monolayer; CO is the initial concentration in the donor chamber (μM). […] Percent of lucifer yellow in basolateral well is calculated using the equation: Where RFUApical and RFUBasolateral are the relative fluorescence unit values of lucifer yellow in the apical and basolateral wells, respectively; VApical and VBasolateral are the volume of apical and basolateral wells (0.075 mL and 0.25 mL), respectively. The % Lucifer Yellow should be less than 1.0.
# [2] = tested on: MDR1; test: in vitro; details: dog
# Protocol: as §1, §2
# [3] = molecular target: hACSS-2 (Homo sapiens (Human), UniProt Q9NR19); test: Surface plasmon resonance (SPR) binding to immobilized hACSS-2
# Protocol: SPR characterization. All binding assays were performed on a ProteOn XPR36 SPR Protein Interaction Array System (Bio-Rad Laboratories, Hercules, CA, USA). The instrument temperature was set at 25° C. for all kinetic analyses. ProteOn GLH sensor chips were preconditioned with two short pulses each (10 s) of 50 mM NaOH, 100 mM HCl, and 0.5% sodium dodecyl […]. Then the system was equilibrated with running buffer (1×PBS pH 7.4, 3% DMSO and 0.005% polysorbate 20). The surface of a GLH sensor chip was activated with a 1:100 dilution of a 1:1 mixture of 1-ethyl-3-(3-dimethylaminopropyl) carbodiimide hydrochloride (0.2 M) and sulfo-N-hydroxysuccinimide (0.05 M). […] Then, after unreacted protein had been washed out, excess active ester groups on the sensor surface were capped by a 5 min injection of 1M ethanolamine HCl (pH 8.0) at a flow rate of 5 μL/min. A reference surface was similarly created by immobilizing a nonspecific protein (IgG b12 anti-HIV-1 gp120; was obtained through the NIH AIDS Reagent Program, Division of AIDS, NIAID, NIH: Anti-HIV-1 gp120 Monoclonal (IgG1 b12) from Dr. Dennis Burton and Carlos Barbas) and was used as a background to correct nonspecific binding. Serial dilutions of hACSS-2 inhibitors were then prepared in the running buffer and injected at a flow rate of 100 μL/min, for a 50 s association phase, followed by up to a 5 min dissociation phase using the “one-shot kinetics” capability of the ProteOn instrument. Data were analyzed using the ProteOn Manager Software version 3.0 (Bio-Rad). The responses from the reference flow cell were subtracted to account for the nonspecific binding and injection artifacts. Experimental data were fitted to a simple 1:1 binding model. Experiments were performed in triplicate to detect kinetic and equilibrium dissociation constants (KD).
# Overproduction of hACSS-2 was achieved using a prokaryotic expression system. […] The bacterial expressions were then spun down, the supernatant discarded, and the pellets resuspended. After the cells were lysed via sonication, the sample was subjected to ultracentrifugation, and the clarified lysate was applied to a Talon cobalt resin affinity column (Clonetech Laboratories, Mountain View, CA). The bound protein was eluted from the column using 1×PBS pH 7.4 with 0.3 M imidazole, then dialyzed overnight into 20 mM Tris-HCl pH 8.0, concentrated to 10 mg/mL, aliquoted, and stored at −80° C.
# [4] = Human plasma stability; type: in vitro ADME; details: both sexes, 37° C., up to 120 min, read-out: Human Plasma Stability T1/2
# Protocol: (§3) Metabolic Stability and Plasma Stability. Test compound Working solution: 5 μL of compound stock solution (10 mM in dimethyl sulfoxide (DMSO)) were diluted with 495 μL of DMSO (Working solution concentration: 100 μM, 100% DMSO). Propantheline bromide Working solution: 5 μL of Propantheline bromide stock solution (10 mM in H2O) were diluted with 495 μL of H2O (Working solution concentration: 100 μM, 100% H2O)
# Human plasma from 3 males and 3 females was obtained. Heparin was used as the anticoagulant. The pooled frozen plasma was thawed in a water bath at 37° C. prior to experiment. Plasma was centrifuged at 4000 rpm for 5 min and the clots were removed if any. Using an Apricot automation workstation, 98 μL/well of blank plasma were added to all 96-well reaction plates. (Blank, T0, T10, T30, T60 and T120). The appointed incubation time points are T0 (0 min), Tn (n=0, 10, 30, 60, 120 min). An Apricot automation workstation was used to add 2 μL/well of working solution (100 μM) to all reaction plates except Blank. (T0, T10, T30, T60 and T120). All reaction plates containing mixtures of compound and plasma were incubated at 37° C. in water bath. The reaction plates were incubated at 37° C., and timer was started. At the end of incubation, 500 μL of stop solution was added and mixed (200 ng/mL tolbutamide and 200 ng/ml labetalol in ACN) to precipitate protein. Each plate was sealed and shaken for 20 minutes. After shaking, each plate was centrifuged at 4000 rpm and 4° C. for 20 minutes. After centrifugation, an Apricot automation workstation was used to transfer 150 μL of supernatant from each reaction plate to its corresponding bioanaylsis plate. Each bioanalysis plate was sealed and shaken for 10 minutes prior to LC-MS/MS analysis. The % remaining of test compound after incubation in plasma was calculated using following equation: Remaining=100×(PAR at appointed incubation time/PAR at T0 time) where PAR is the peak area ratio of analyte versus internal standard (IS).
# [5] = Human liver microsome stability; type: in vitro ADME; details: 60 min, given as fraction
# Protocol: as §3
# hACSS-2, sequence (Q9NR19 whole entry): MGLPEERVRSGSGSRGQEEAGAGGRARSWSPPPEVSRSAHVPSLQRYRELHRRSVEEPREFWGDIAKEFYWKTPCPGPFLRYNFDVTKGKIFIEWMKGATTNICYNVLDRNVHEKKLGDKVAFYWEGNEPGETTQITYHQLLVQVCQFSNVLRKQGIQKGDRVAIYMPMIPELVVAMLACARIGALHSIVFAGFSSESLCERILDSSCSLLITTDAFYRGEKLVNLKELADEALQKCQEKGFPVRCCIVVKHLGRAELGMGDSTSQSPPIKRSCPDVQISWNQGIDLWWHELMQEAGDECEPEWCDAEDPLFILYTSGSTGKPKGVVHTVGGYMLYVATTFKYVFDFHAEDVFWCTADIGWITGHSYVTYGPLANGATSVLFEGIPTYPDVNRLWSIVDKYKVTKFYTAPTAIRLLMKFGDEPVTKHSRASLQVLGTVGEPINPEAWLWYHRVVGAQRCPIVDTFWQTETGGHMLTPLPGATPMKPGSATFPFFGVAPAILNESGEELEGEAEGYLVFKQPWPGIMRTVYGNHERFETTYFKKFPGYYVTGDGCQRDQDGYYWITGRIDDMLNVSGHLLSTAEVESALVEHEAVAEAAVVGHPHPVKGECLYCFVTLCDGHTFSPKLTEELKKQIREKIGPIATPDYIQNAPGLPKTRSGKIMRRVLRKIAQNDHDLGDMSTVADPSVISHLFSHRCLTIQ
structure (smiles),measurement,setting,value
N[C@H](C(=O)N1CCCC(c2ccccc2)(c2ccccc2)C1)C1CC1 [AD-8007],Note (efflux / BBB assessment),[1],AD 8007 has a low efflux ratio
same,"efflux ratio at 1.5 h, 2 µM","[2]; MDCK-MDR1, pH 7.4",8.96
same,"recovery at 1.5 h, 2 μM","[2]; MDCK-MDR1, pH 7.4, Mean % Solution Recovery A to B",81.3%
same,"recovery at 1.5 h, 2 μM","[2]; MDCK-MDR1, pH 7.4, Mean % Solution Recovery B to A",97%
same,koff,"[3]; 1:1 binding model, mean, n = 3",0.547 s⁻¹
same,kon,"[3]; 1:1 binding model, mean, n = 3",4790 M⁻¹ s⁻¹
same,Kd,"[3]; Langmuir isotherm equilibrium fit, mean, n = 3, read-out: KD [μM] equilibrium",117 µM
same,Kd,"[3]; global fit, mean, n = 3, read-out: KD [μM] kinetic/global",149 µM
same,Kd,"[3]; read-out: Affinity (KD in μM) for hACSS-2 mean ± SD (n = 3), SPR, one site binding model isotherm, triplicate",89 ± 20 µM
same,half-life at 2 µM,[4],> 4.82 h
same,Human Liver Microsome Stability Remaining(T = 60 min),[5],0.7723
same,Human Liver Microsome Stability Remaining(NCF = 60 min),[5]; NCF,0.9563
